This is an account of results in PMC3376404 (Bioorganic & medicinal chemistry letters, 2012).

A short description of one data set: Decomposition. The note with it: for kobs (apparent rate constant for decomposition): no thiol, compound 70 μM, MOPS 250 mM, pH 7, MeCN 25% v/v, 24 °C. The format is physicochemical.
Data set [1] can be described thus: Reaction with the biological thiol glutathione. It counts as physicochemical. The note with it: for kobs (pseudo-first-order rate constant, + thiol): compound 70 μM, 24 °C; for kobs (pseudo-first-order rate constant, + thiol) / second-order rate constant for reaction with GSH: GSH 700 μM, MOPS 300 mM, pH 7, MeCN 25% v/v; for second-order rate constant for reaction with GSH: estimated from kobs.

The conditions of data set [2]: 100 μM 1 in HEPES, 250 mM, pH 7, 24 °C, no organic co-solvent; cited from earlier work.
The conditions of data set [3]: HEPES buffer, 50 mM, pH 7, 24 °C, no organic co-solvent; cited from earlier work.

The structures appear in SMILES notation. Values joined by “and” are separate entries in the source; they are usually repeats but may differ in a detail not shown here. Identical values can stand only once. Like-named read-outs stand apart in the source and are kept apart here.

In the case of `C/C1=C\[C@@H](O)C(=O)/C=C/C=C\c2csc(n2)[C@@H](C)NC(=O)C[C@@]2(CC1)[S+]([O-])SC(=O)[C@]2(C)O` (some centres unmarked) [Compound 1, Leinamycin, reference compound], in “Decomposition”, the “kobs (apparent rate constant for decomposition)” value is listed as 0.408 ± 0.001 × 10^−3 min^-1. In addition, the “times more stable than 5 against decomposition in aqueous buffer” value in the data set “Decomposition” (relative to 5) is on record as “approximately 30 times”. Besides, in “Decomposition” (relative to 6), the “times more stable than 6 against decomposition in aqueous buffer” value was around 15 times. Also, in data set [1], the “kobs (pseudo-first-order rate constant, + thiol)” value is 6.67 ± 0.01 × 10^−2 min^-1 and the “second-order rate constant for reaction with GSH” value (“second-order rate constant” for short) was 1.58 M⁻¹ s⁻¹. The “times less reactive toward GSH than compound 5” value in data set [1] (relative to 5) was 3.6 times. In addition, in data set [2], the “rate constant (decomposition)” value is 0.00072 min⁻¹ and the “t1/2 (decomposition)” value is listed as 16.1 h. Further, in data set [3], the “second-order rate constant” value is 10.4 M⁻¹ s⁻¹.
As for `CC1(C)[S+]([O-])SC(=O)[C@@]1(C)O` (some centres unmarked) [Compound 5, 4-hydroxy-4,5,5-trimethyl-1,2-dithiolan-3-one-1-oxide], the “kobs (apparent rate constant for decomposition)” value in “Decomposition” is given as 13.2 ± 0.01 × 10^−3 min^-1. In data set [1], the “kobs (pseudo-first-order rate constant, + thiol)” value is 24.3 ± 0.1 × 10^−2 min^-1 and the “second-order rate constant” value is 5.73 M⁻¹ s⁻¹.
Consider `CC1(C)[S+]([O-])SC(=O)[C@]1(C)O` (some centres unmarked) [Compound 6, 4-hydroxy-4,5,5-trimethyl-1,2-dithiolan-3-one-1-oxide], for which the “kobs (decomposition)” value was 1.5 ± 0.2 × 10^−2 min^-1 and 1.5 × 10^−2 min^-1 in “Decomposition” (300 mM MOPS, pH 7.0); 1.9 ± 0.2 × 10^−2 min^-1 in the data set “Decomposition” (500 mM MOPS); 0.0087 min⁻¹ in the data set “Decomposition” (pH 6.5, 300 mM MOPS); 0.047 min⁻¹ in the data set “Decomposition” (pH 7.5, 300 mM MOPS). Moreover, the “kobs (apparent rate constant for decomposition)” value in “Decomposition” is 6.2 ± 0.6 × 10^−3 min^-1. In “Decomposition” (trans isomer 6 versus cis isomer 5), the “stability relative to the cis isomer in aqueous buffered solution” value is “approximately two times more stable”. Moreover, the “kobs (pseudo-first-order rate constant, + thiol)” value in data set [1] is listed as 18.3 ± 0.2 × 10^−2 min^-1. The “second-order rate constant” value in data set [1] is 4.35 M⁻¹ s⁻¹.
